Reference: patent publication US20050049207A1 (priority 2003, published 2005)

Assays:
[1] = test system: prostate, lung and colorectal cancer; details: selenium supplements, humans; cited from earlier work
Candida albicans = details: cited from earlier work
Saccharomyces cerevisiae = Saccharomyces cerevisiae (brewer's/baker's yeast); cited from earlier work
leukemia = details: human, in vivo; cited from earlier work
PSA levels = details: men with prostate cancer; cited from earlier work
prostate cancer = test: Case 4: person with prostate cancer on Phase I diet and antifungals; format: in vivo, man; details: one patient; Phase I diet 2 months, nystatin 2 months, then UGN, Caprylic acid, GSE; PSA closer to 4.0 at cancer diagnosis
From the text: 4. A person was diagnosed as having prostrate cancer. UTSW study for BPH ×5-6 yrs. Biopsy prior and post program. Normal PSA! At post-study diagnosis, cancer was found: October 2001. They moved to OKC and started watching Doug's show.
Past history includes heavy use of antibiotics, recurrently for allergies, sinusitis.
Went to MD Anderson—found cancer in different place of the prostate, but Cancer was confirmed nonetheless. Gleason stage 7.
Started on Phase I for 2 months (had severe die-off ×4 days—including fever), nystatin thereafter ×2 months. Cont'd diet for 4 months and stays on a variant of the diet. On UGN, Caprylic acid, GSE now ×3 months. Saw John Hogan, D.O. (OKC). Past 2 yrs: PSA now is 1.1. Was closer to 4.0 at the time of cancer diagnosis.
F/U Ultrasound: cannot find any tumors. Whole body scans have been negative.

[2] = test system: primary human urothelial cells; details: cited from earlier work
[3] = in vivo; cited from earlier work
[4] = test system: p53 tumor suppressor gene; details: cited from earlier work

In the case of [Se] [Selenium], the “lower risk of developing cancer” value [1] is given as 37% and the “lower risk of dying from the cancer” value [1] is given as 50%.

For CC/C(=C(\c1ccccc1)c1ccc(OCCN(C)C)cc1)c1ccccc1 [Tamoxifen], the antifungal action (Candida albicans) is given as “marked antifungal action” and the antifungal action (Saccharomyces cerevisiae) is given as “marked antifungal action”.

In the case of C[C@@H]1[C@H](O)[C@@H](C)/C=C/C=C/C=C/C=C/C=C/C=C/C=C/[C@H](O[C@@H]2O[C@H](C)[C@@H](O)[C@H](N)[C@@H]2O)C[C@@H]2O[C@](O)(C[C@@H](O)C[C@@H](O)[C@H](O)CC[C@@H](O)C[C@@H](O)CC(=O)O[C@H]1C)C[C@H](O)[C@H]2C(=O)O [amphotericin B], the “effect on (secondary) fungal infections” value (leukemia) is listed as “cured their (secondary) fungal infections” and the “effect on cancer (leukemia)” value (leukemia) is listed as “successfully treated their cancer”.

In the case of OC(Cn1cncn1)(Cn1cncn1)c1ccc(F)cc1F [fluconazole], the “effect on (secondary) fungal infections” value (leukemia) is given as “cured their (secondary) fungal infections” and the “effect on cancer (leukemia)” value (leukemia) is given as “successfully treated their cancer”.

In the case of CC(=O)N1CCN(c2ccc(OCC3COC(Cn4ccnc4)(c4ccc(Cl)cc4Cl)O3)cc2)CC1 (stereo not shown) [ketoconazole], the “effect on PSA levels” value (PSA levels) is given as “lowered PSA levels”.

Work on C[C@@H]1[C@H](O)[C@@H](C)/C=C/C=C/CC/C=C/C=C/C=C/C=C/C(O[C@H]2O[C@H](C)[C@@H](O)[C@H](N)[C@@H]2O)CC2O[C@](O)(CC(O)C(O)CCC(O)CC(O)CC(O)CC(=O)O[C@H]1C)CC(O)C2C(=O)O (stereo partly shown) [nystatin] yielded a PSA (prostate cancer) of 1.1.

In the case of C[C@@H]1Cc2c(Cl)cc(C(=O)N[C@@H](Cc3ccccc3)C(=O)O)c(O)c2C(=O)O1 [ochratoxin A], the “unscheduled DNA synthesis” value [2] is listed as “Induction of unscheduled DNA synthesis”.

In the case of aflatoxin B1, the “liver carcinoma after exposure” value [3] is listed as “develop liver carcinoma” and the “mutation of p53 tumor suppressor gene” value [4] is listed as “induces the transversion of G→T in codon 249”.
